The record followed here is patent US12448352B2, “Beta adrenergic agonist and methods of using the same” (Curasen Therapeutics, Inc., priority 2019, dated 2025).

A short description of data set [1]: Rat CNS exposure (plasma, CSF, brain). Conditions: SC 1 mg/kg, 1.00 h. Type of data set: in vivo, male SD rats. As for the experimental part:
(§1) These rats were typically about 6-8 weeks old, weighing 200 g to 300 g. Animals were fasted overnight and free access to food 4 hours after dosing. A required volume of vehicle was added to reach the target concentration of the test article and vehicle component to prepare for the dosing. The dosing vehicle was PEG400 or 30% PEG400 in saline for IV, or 0.5% methylcellulose in water for PO. For IV dosing, the animals were administered intravenously via tail vein. For PO dosing, the animals were administered via oral gavage. After dosing, blood sample was collected (˜0.2 mL per time point) through jugular vein or heart puncture. Blood of each sample was transferred into plastic micro centrifuge tubes containing EDTA-K2. Collection tubes with blood samples and anticoagulant were inverted several times for proper mixing of the tube contents and then placed on wet ice. The blood samples were centrifuged at 2000 g for 5 minutes at 4° C. to obtain plasma which was stored in a freezer at −75±15° C. prior to analysis. Samples were analyzed using LC-MS/MS. WinNonlin were used for pharmacokinetic calculations.
(§2) For CSF sampling, after anesthesia, the foramen magnum was exposed, and a syringe was used with a venoclysis needle to sample the CSF. The CSF samples were stored in polypropylene tubes, then stored in a freezer at −75±15° C. prior to analysis.
(§3) For brain sampling, the rats were fully exsanguinated by using a risen of carbon dioxide prior to brain collection. Brain samples were then collected at adopted time point, quick frozen and kept at −75±15° C. All brain samples were weighted and homogenated with PBS by brain weight (g) to PBS volume (mL) ratio 1:3 before analysis. The actual concentration is the detected value multiplied by the dilution factor.

Data set [2] in a line: Rat pharmacokinetic study (plasma). Type of data set: in vivo, male SD rats. As for the experimental part:
as §1, with “The rat pharmacokinetics studies of exemplary compounds 03-3, 03-5, and 03-115 were conducted with male SD rats. These” for “These”

A short description of data set [3]: Plasma protein binding, equilibrium dialysis (rat). Type of data set: in vitro ADME. Conditions: 1 μM, 6 hours dialysis. As for the experimental part: Preparation of 100 mM sodium phosphate and 150 mM NaCl buffer (PBS). A basic solution was prepared by dissolving 14.2 g/L Na2HPO4 and 8.77 g/L NaCl in deionized water and the solution could be stored at 4° C. for up to 7 days. An acidic solution was prepared by dissolving 12.0 g/L NaH2PO4 and 8.77 g/L NaCl in deionized water and the solution could be stored at 4° C. for up to 7 days. The basic solution was titrated with the acidic solution to pH 7.4 and store at 4° C. for up to 7 days. pH was checked on the day of experiment and was adjusted if outside specification of 7.4±0.1.
Thawing of the frozen plasma (stored at −80° C.). Frozen plasma was thawed immediately at room temperature. The plasma was centrifuged at 3,220 g for 10 minutes to remove clots and supernatant was collected into a fresh tube. The pH of the plasma was checked and recorded. Note: a). Only use plasma that has been thawed no more than twice since arrival. b). Only use plasma within the range of pH 7 to pH 8.
Preparation of working solutions. The working solutions of test compound and control compound ketoconazole were prepared in DMSO at the concentration of 200 μM. And then 3 μL of working solutions was removed to mix with 597 μL of rat plasma to achieve a final concentration of 1 μM (0.5% DMSO). Plasma samples were vortexed thoroughly.
Preparation of dialysis membranes. […]

A short description of data set [4]: Mouse CNS exposure (plasma, CSF, brain). Type of data set: in vivo, male C57BL/6J mice. To be noted: SC 1 mg/kg, 60 min. How it is done:
as §1, §2, §3
These mice were typically about 6-8 weeks old, weighing 20 g to 30 g. Animals were free access to food before dosing. Sample amount was ˜0.03 mL per time point and sample site was dorsal metatarsal or heart puncture.

Regarding `Cc1ncccc1[C@@H](O)CNC(C)(C)C` [Compound 03-115], in data set [1], the “Concentration, Brain” value was determined as 142 ng/g; the “Concentration, CSF” value is recorded as 56.2 ng/mL; the “Concentration, Plasma” value is on record as 149 ng/mL. In data set [2] (IV 1 mg/kg), the AUCInf was 164 ng·h/mL, the C0 is listed as 512 ng/mL, the T1/2 worked out at 21.6 min and the Vss_obs was 2.4 L/kg. In data set [2] (PO 5 mg/kg), the AUCInf stood at 192 ng·h/mL, the highest concentration (Cmax) came out at 174 ng/mL, the MRTInf_obs was found to be 63.6 min and the T1/2 was 96.6 min. Further, the Tmax in data set [2] (PO 5 mg/kg) worked out at 15 min. Moreover, in data set [3], the “PPB (rat), Percent of Unbound Fractions” value worked out at 97%. Besides, in data set [4], the “Concentration, Brain” value is listed as 280 ng/g; the “Concentration, CSF” value was 157 ng/mL; the “Concentration, Plasma” value is 270 ng/mL.
